According to patent US6737383B1, “Herbicidal oxadiazolidines” (priority 1999, dated 2004):

Assays:
wild oat = assay: Test B pre/postemergence wild oat; assay type: in vivo, Avena fatua
Procedure, shortened: (§1)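 Test chemicals in a non-phytotoxic solvent mixture with surfactant were sprayed preemergence onto planted seeds and postemergence onto plants 2 to 18 cm tall (1- to 4-leaf stage). After twelve to sixteen days in a greenhouse, injury was visually rated against untreated controls from 0 (no effect) to 10 (complete control).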

rape = assay: Test B pre/postemergence rape; assay type: in vivo, Brassica napus
Procedure, shortened: as §1

bamyardgrass = assay: Test B flood test barnyardgrass; assay type: in vivo, Echinochloa crus-galli
Procedure, shortened: (§2)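 Plants were grown to the 2-leaf stage before treatment with test chemical, then held in a greenhouse for twelve to sixteen days. Injury was visually rated against untreated controls on a 0–10 scale, where 0 is no effect and 10 is complete control.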

blackgrass = assay: Test B pre/postemergence blackgrass; assay type: in vivo, Alopecurus myosuroides
Procedure, shortened: as §1

bedstraw = assay: Test B pre/postemergence bedstraw; assay type: in vivo, Galium aparine
Procedure, shortened: as §1

corn = assay: Test B pre/postemergence corn; assay type: in vivo, Zea mays
Procedure, shortened: as §1

smallflower flatsedge = assay: Test B flood test smallflower flatsedge; assay type: in vivo, Cyperus difformis
Procedure, shortened: as §2

purple nutsedge = assay: Test B pre/postemergence purple nutsedge; assay type: in vivo, Cyperus rotundus
Procedure, shortened: as §1

cocklebur = assay: Test B pre/postemergence cocklebur; assay type: in vivo, Xanthium strumarium
Procedure, shortened: as §1

morningglory = assay: Test B pre/postemergence morningglory; assay type: in vivo, Ipomoea hederacea
Procedure, shortened: as §1

velvetleaf = assay: Test B pre/postemergence velvetleaf; assay type: in vivo, Abutilon theophrasti
Procedure, shortened: as §1

duck salad = assay: Test B flood test duck salad; assay type: in vivo, Heteranthera limosa
Procedure, shortened: as §2

surinam grass = assay: Test B pre/postemergence surinam grass; assay type: in vivo, Brachiaria decumbens
Procedure, shortened: as §1

pigweed = assay: Test B pre/postemergence pigweed; assay type: in vivo, Amaranthus retroflexus
Procedure, shortened: as §1

wheat = assay: Test B pre/postemergence wheat; assay type: in vivo, Triticum aestivum
Procedure, shortened: as §1

rice = assay: Test B flood test rice; assay type: in vivo, Oryza sativa
Procedure, shortened: as §2

[1] = Preemergence, Rate 62 g/ha, scale of 0 to 10 where 0 is no effect and 10 is complete control
[2] = Preemergence, Rate 125 g/ha, 0 is no effect, 10 is complete control
[3] = Preemergence, Rate 250 g/ha, scale 0 to 10, 0 is no effect, 10 is complete control
[4] = Preemergence, Rate 500 g/ha, scale 0 to 10 (0 no effect, 10 complete control)
[5] = Rate 250 g/ha, Postemergence, scale 0 to 10, 0 is no effect, 10 is complete control
[6] = Rate 500 g/ha, Postemergence, scale 0 to 10
[7] = Postemergence, Rate 125 g/ha, scale of 0 to 10 where 0 is no effect and 10 is complete control
[8] = Rate 62 g/ha, Postemergence, scale of 0 to 10 where 0 is no effect and 10 is complete control
[9] = Postemergence (flood test species), Rate 125 g/ha, scale of 0 to 10 where 0 is no effect and 10 is complete control
[10] = Rate 62 g/ha, Postemergence section, flood test species, scale of 0 to 10 where 0 is no effect and 10 is complete control
[11] = Rate 250 g/ha, Postemergence (flood test), scale 0 to 10, 0 is no effect, 10 is complete control
[12] = Rate 500 g/ha, listed under Postemergence (flood test species), scale 0 to 10

## Cc1ccccc1-n1c(=O)on(C(=O)N(c2cccc(F)c2F)C(C)C)c1=O [Compound 171]
Wild oat; [1]
  Wild oats plant response rating: 0
Wild oat; [2]
  Wild oats plant response rating (0 to 10 scale): 2
Wild oat; [3]
  Wild oats plant response rating: 4
Wild oat; [4]
  Wild oats plant response rating: 5
Wild oat; [5]
  Plant response rating, Wild oats: 0
Wild oat; [6]
  Wild oats plant response rating: 0
rape; [7]
  Rape plant response rating: 0
rape; [1]
  Rape plant response rating: 0
rape; [2]
  Rape plant response rating (0 to 10 scale): 0
rape; [4]
  Rape plant response rating: 4
rape; [8]
  Rape plant response rating: 0
rape; [5]
  Plant response rating, Rape: 0
rape; [6]
  Rape plant response rating: 0
bamyardgrass; [9]
  Barnyardgrass plant response rating: 0
bamyardgrass; [10]
  Barnyardgrass plant response rating: 0
bamyardgrass; [11]
  Plant response rating, Barnyardgrass: 0
bamyardgrass; [12]
  Barnyardgrass plant response rating: 0
blackgrass; [7]
  Blackgrass plant response rating: 0
blackgrass; [1]
  Blackgrass plant response rating: 0
blackgrass; [2]
  Blackgrass plant response rating (0 to 10 scale): 0
blackgrass; [3]
  Blackgrass plant response rating: 0
blackgrass; [4]
  Blackgrass plant response rating: 2
blackgrass; [8]
  Blackgrass plant response rating: 0
blackgrass; [5]
  Plant response rating, Blackgrass: 0
blackgrass; [6]
  Blackgrass plant response rating: 0
bedstraw; [7]
  Bedstraw plant response rating: 7
bedstraw; [1]
  Bedstraw plant response rating: 0
bedstraw; [2]
  Bedstraw plant response rating (0 to 10 scale): 0
bedstraw; [3]
  Bedstraw plant response rating: 0
bedstraw; [4]
  Bedstraw plant response rating: 0
bedstraw; [5]
  Plant response rating, Bedstraw: 8
corn; [7]
  Corn plant response rating: 0
corn; [1]
  Corn plant response rating: 0
corn; [2]
  Corn plant response rating (0 to 10 scale): 0
corn; [3]
  Corn plant response rating: 0
corn; [4]
  Corn plant response rating: 0
corn; [8]
  Corn plant response rating: 0
corn; [5]
  Plant response rating, Corn: 0
corn; [6]
  Corn plant response rating: 0
Smallflower flatsedge; [9]
  S. Flatsedge plant response rating: 0
Smallflower flatsedge; [10]
  S. Flatsedge plant response rating: 0
Smallflower flatsedge; [11]
  Plant response rating, S. Flatsedge: 0
Smallflower flatsedge; [12]
  S. Flatsedge plant response rating: 0
Purple nutsedge; [7]
  Nutsedge plant response rating: 0
Purple nutsedge; [1]
  Nutsedge plant response rating: 0
Purple nutsedge; [2]
  Nutsedge plant response rating (0 to 10 scale): 0
Purple nutsedge; [3]
  Nutsedge plant response rating: 0
Purple nutsedge; [4]
  Nutsedge plant response rating: 0
Purple nutsedge; [8]
  Nutsedge plant response rating: 0
Purple nutsedge; [5]
  Plant response rating, Nutsedge: 0
Purple nutsedge; [6]
  Nutsedge plant response rating: 0
cocklebur; [7]
  Cocklebur plant response rating: 0
cocklebur; [1]
  Cocklebur plant response rating: 0
cocklebur; [2]
  Cocklebur plant response rating (0 to 10 scale): 0
cocklebur; [3]
  Cocklebur plant response rating: 0
cocklebur; [4]
  Cocklebur plant response rating: 0
cocklebur; [8]
  Cocklebur plant response rating: 0
cocklebur; [5]
  Plant response rating, Cocklebur: 3
cocklebur; [6]
  Cocklebur plant response rating: 3
morningglory; [7]
  Morningglory plant response rating: 1
morningglory; [1]
  Morningglory plant response rating: 0
morningglory; [2]
  Morningglory plant response rating (0 to 10 scale): 0
morningglory; [3]
  Morningglory plant response rating: 0
morningglory; [4]
  Morningglory plant response rating: 0
morningglory; [8]
  Morningglory plant response rating: 0
morningglory; [5]
  Plant response rating, Morningglory: 2
morningglory; [6]
  Morningglory plant response rating: 2
velvetleaf; [1]
  Velvetleaf plant response rating: 0
velvetleaf; [2]
  Velvetleaf plant response rating (0 to 10 scale): 0
velvetleaf; [3]
  Velvetleaf plant response rating: 0
velvetleaf; [4]
  Velvetleaf plant response rating: 0
velvetleaf; [5]
  Plant response rating, Velvetleaf: 0
velvetleaf; [6]
  Velvetleaf plant response rating: 3
Duck salad; [9]
  Ducksalad plant response rating: 0
Duck salad; [10]
  Ducksalad plant response rating: 0
Duck salad; [11]
  Plant response rating, Ducksalad: 0
Duck salad; [12]
  Ducksalad plant response rating: 0
Surinam grass; [7]
  B. signalgrass plant response rating: 0
Surinam grass; [1]
  B. signalgrass plant response rating: 0
Surinam grass; [2]
  B. signalgrass plant response rating (0 to 10 scale): 1
Surinam grass; [3]
  B. signalgrass plant response rating: 3
Surinam grass; [4]
  B. signalgrass plant response rating: 5
Surinam grass; [8]
  B. signalgrass plant response rating: 0
Surinam grass; [5]
  Plant response rating, B. signalgrass: 0
Surinam grass; Rate 500 g/ha, Postemergence, scale 0 to 10, 0 no effect, 10 complete control
  B. signalgrass plant response rating: 0
pigweed; [7]
  Redroot pigweed plant response rating: 0
pigweed; [1]
  Redroot pigweed plant response rating: 0
pigweed; [2]
  Redroot pigweed plant response rating (0 to 10 scale): 0
pigweed; [3]
  Redroot pigweed plant response rating: 5
pigweed; [4]
  Redroot pigweed plant response rating: 6
pigweed; [8]
  Redroot pigweed plant response rating: 0
pigweed; [5]
  Plant response rating, Redroot pigweed: 0
pigweed; [6]
  Redroot pigweed plant response rating: 5
wheat; [1]
  Wheat plant response rating: 0
wheat; [2]
  Wheat plant response rating (0 to 10 scale): 0
wheat; [3]
  Wheat plant response rating: 0
wheat; [4]
  Wheat plant response rating: 0
wheat; [5]
  Plant response rating, Wheat: 0
wheat; [6]
  Wheat plant response rating: 0
rice; [9]
  Rice plant response rating: 0
rice; [10]
  Rice plant response rating: 0
rice; [11]
  Plant response rating, Rice: 0
rice; [12]
  Rice plant response rating: 0
